# Measured values from patent US20080132510A1, “Imidazolylmethyl and Pyrazolylmethyl Heteroaryl Derivatives” (priority 2005, published 2008).
# Target: benzodiazepine site of the GABAA receptor
# Test: Ligand binding assay (3H-Ro15-1788 displacement, purified rat cortical membranes)
# Conditions: previously determined; used in the Cheng-Prusoff equation; read-out: binding dissociation constant (Kd) of the radioligand
compound,measurement,value
CCOC(=O)c1ncn2c1CN(C)C(=O)c1cc(F)ccc1-2 [^3H—R15-1788],Kd,1 nM
